Where two headings read alike, the source gives them in different places. Square brackets hold non-standard residues; d marks the D form. Peptide text beside a SMILES is read from it. * marks the point of attachment. X1 = CC(=O)N[C@H]1C(*)O[C@H](CO)[C@@H](O)[C@@H]1O
Tests used:
[1] = test system: OVA-induced asthma model mice; experiment: Lung function (inspiratory airway resistance, lung compliance) in OVA-induced allergic asthma model mice; type: in vivo, BALB/c mice; settings: for Inspiratory airway resistance / Lung compliance: n=10
Method: (§1) The second batch: mice were divided into groups, 10 mice in each group, namely: blank control group (normal saline), model group (OVA, dose of 20 ug/mouse), SP peptide group (administered dose of 87.5 µg/kg body weight/ day, 175 µg/kg body weight/day, 350 µg/kg body weight/day, respectively), SIPI-D00 peptide group (administered dose of 87.5 µg/kg body weight/day, 175 µg/kg body weight/day, 350 µg/kg body weight/day), and Dexamethasone group (administered dose of 2 mg/kg body weight/day).
(§2) Mice in the model group, SP peptide group, SIPI-D00 peptide group and dexamethasone group were sensitized by intraperitoneal injection of OVA (20 µg OVA/mice) on day 0, 7, and 14, and challenged by aerosol administration of OVA (once a day for 5 consecutive days) on day 21-25 to construct asthmatic model animals. Mice in the model group were given normal saline on days 21-28; mice in different doses of SP peptide group and SIPI-D00 peptide group were injected subcutaneously with different doses of SP and SIPI-D00 on days 19-28; mice in dexamethasone group were injected intraperitoneally with 2 mg/kg/day dexamethasone on days 21-28. At the same time, 10 mice in the blank control group were fed normally from day 0 to day 28 without any treatment, and were given normal saline as a blank control.
On the 28th day, the mice were anesthetized with tracheal intubation and jugular vein intubation, and the inspiratory airway resistance and lung compliance were measured in each group of animals. Each animal was given fold increasing amounts of methacholine via the jugular vein: 0.025 mg/kg, 0.05 mg/kg, 0.1 mg/kg, 0.2 mg/kg. After each dose was given, the lung compliance curve was recorded continuously for 5 minutes, and the inspiratory airway resistance and lung compliance were calculated. […]
(§3) At the same time, 10 mice in the blank control group were fed normally from day 0 to day 28 without any treatment, and were given normal saline as a blank control.

serum IgE = experiment: Serum IgE level in OVA-induced allergic asthma model mice; type: in vivo, BALB/c mice; settings: for Serum IgE level (OD450): days 19-28, n=10
Method: as §1, with “first” for “second”, “(OVA,” for “(OVA, dose of”, “of” for “of 87.5 µg/kg body weight/ day,”, “of” for “of 87.5 µg/kg body weight/day,”, “dexamethasone” for “Dexamethasone”
OVA for sensitization was dissolved in sterile PBS solution at a final concentration of 0.2 mg/mL, then an equal volume of aluminum hydroxide adjuvant was added. After shaking for 30 minutes, each mouse was intraperitoneally injected with 0.2 mL (20 µg OVA per mouse).
2% OVA solution was prepared in sterile PBS. The 2% OVA was nebulized with a nebulizer, and the mice were placed in the nebulizer inhalation box for 30 minutes per day.
According to the dosage, SP peptide and SIPI-D00 were dissolved in normal saline respectively, and administered by subcutaneous administration on the back according to the body weight of the animals.
as §2
After 28 days, blood was collected from the inner canthus of the mouse, and the serum was collected, and the IgE level in the serum was measured with an ELISA kit. […]
as §3

[2] = Stability of each 7-peptide compound in rat whole blood; type: in vitro ADME; settings: for stability in whole blood: compared with SP peptide; for recovery: read-out: Recovery rate (%) M±SD
Method: Preparation of the test product: SP and SIPI-D00 were dissolved and diluted with an appropriate amount of 50% acetonitrile water containing 0.1% formic acid to obtain a working solution with a concentration of 200 µg/mL.
• 1) Fresh rat whole blood was added to the EP tube, and shaken gently to mix well; • 2) The EP tube was pre-incubated in a 37° C. water bath for 5 minutes; • 3) Each compound was added to start the reaction and continued to incubate at 37° C.; • 4) 50 µL sample was taken from the sample tube at 0, 2 min, 5 min, 10 min, 30 min, and 60 min, respectively, into the stop tube, 50 µL of ice-cold 7% perchloric acid was added, and shaken to stop the reaction; • 5) Sample was centrifuged at 13000 r/min for 10 min, 75 µL supernatant was aspirated, 60 µL1.25% ammonia water was added and mixed well. After filtered with […] microporous membrane, 20 µL sample was taken for LC-MS/MS analysis.

[3] = test system: OVA-induced asthma model mice; experiment: Lung pathology (H&E) of OVA-induced asthma model mice; type: in vivo, BALB/c mice; settings: after 28 days
Method: as §1, with “first” for “second”, “(OVA,” for “(OVA, dose of”, “of” for “of 87.5 µg/kg body weight/ day,”, “of” for “of 87.5 µg/kg body weight/day,”, “dexamethasone” for “Dexamethasone”
as §2
After 28 days, the mouse lung tissue was taken out, fixed in 4% formaldehyde, embedded in paraffin, sectioned, and stained with H&E for pathological observation.
The first batch: mice were divided into groups, 10 mice in each group, namely: blank control group (normal saline), model group (OVA, 20 ug/mice), and SP peptide group (administered dose of 175 µg/kg body weight/day, 350 µg/kg body weight/day, respectively), SIPI-G5 peptide group (administered dose of 175 µg/kg body weight/day, 350 µg/kg body weight/day), dexamethasone group (administered dose of 2 mg/kg body weight/day).
as §3

[4] = 87.5 ug/kg/day s.c., methacholine 0 mg/kg
[5] = 87.5 ug/kg/day s.c., methacholine 0.025 mg/kg
[6] = 87.5 ug/kg/day s.c., methacholine 0.05 mg/kg
[7] = 87.5 ug/kg/day s.c., methacholine 0.1 mg/kg
[8] = 87.5 ug/kg/day s.c., methacholine 0.2 mg/kg
[9] = 175 ug/kg/day s.c., methacholine 0 mg/kg
[10] = 175 ug/kg/day s.c., methacholine 0.025 mg/kg
[11] = 175 ug/kg/day s.c., methacholine 0.05 mg/kg
[12] = 175 ug/kg/day s.c., methacholine 0.1 mg/kg
[13] = 175 ug/kg/day s.c., methacholine 0.2 mg/kg
[14] = 350 ug/kg/day s.c., methacholine 0 mg/kg
[15] = 350 ug/kg/day s.c., methacholine 0.025 mg/kg
[16] = 350 ug/kg/day s.c., methacholine 0.05 mg/kg
[17] = 350 ug/kg/day s.c., methacholine 0.1 mg/kg
[18] = 350 ug/kg/day s.c., methacholine 0.2 mg/kg
[19] = rat whole blood, 37° C., 1000 ng/mL, incubation time 0 min
[20] = rat whole blood, 37° C., 1000 ng/mL, incubation time 2 min
[21] = rat whole blood, 37° C., 1000 ng/mL, incubation time 5 min
[22] = rat whole blood, 37° C., 1000 ng/mL, incubation time 10 min
[23] = rat whole blood, 37° C., 1000 ng/mL, incubation time 30 min
[24] = rat whole blood, 37° C., 1000 ng/mL, incubation time 60 min

C[C@H](O)[C@@H](NC(=O)[C@@H](Cc1ccc(O)cc1)NC(=O)[C@H](NC(=O)[C@@H](CO)NC(=O)CN)[C@H](C)O)C(=O)N[C@H](CCC(N)=O)C(=O)NCC(=O)O [SIPI-D00, GSTYTQG] (H-G[dS][dT][dY][dT][dQ]G-OH)
Inspiratory airway resistance [1, 4]: 1.00±0.00
Lung compliance [1, 4]: 1.00±0.00
Inspiratory airway resistance [1, 5]: 1.32±0.32
Lung compliance [1, 5]: 0.80±0.18
Inspiratory airway resistance [1, 6]: 1.64±0.35
Lung compliance [1, 6]: 0.64±0.14
Inspiratory airway resistance [1, 7]: 1.86±0.43
Lung compliance [1, 7]: 0.57±0.13
Inspiratory airway resistance [1, 8]: 2.05±0.51
Lung compliance [1, 8]: 0.52±0.13
Inspiratory airway resistance [1, 9]: 1.00±0.00
Lung compliance [1, 9]: 1.00±0.00
Inspiratory airway resistance [1, 10]: 1.21±0.15
Lung compliance [1, 10]: 0.84±0.10
Inspiratory airway resistance [1, 11]: 1.35±0.18
Lung compliance [1, 11]: 0.75±0.10
Inspiratory airway resistance [1, 12]: 1.47±0.21
Lung compliance [1, 12]: 0.69±0.093
Inspiratory airway resistance [1, 13]: 1.58±0.34
Lung compliance [1, 13]: 0.65±0.12
Inspiratory airway resistance [1, 14]: 1.00±0.00
Lung compliance [1, 14]: 1.00±0.00
Inspiratory airway resistance [1, 15]: 1.28±0.30
Lung compliance [1, 15]: 0.83±0.14
Inspiratory airway resistance [1, 16]: 1.43±0.35
Lung compliance [1, 16]: 0.70±0.19
Inspiratory airway resistance [1, 17]: 1.61±0.47
Lung compliance [1, 17]: 0.55±0.18
Inspiratory airway resistance [1, 18]: 1.74±0.51
Lung compliance [1, 18]: 0.49±0.19
inspiratory phase resistance (in words) ([1]; compared with the model group): significantly decreased
lung compliance (in words) ([1]; compared with the model group): significantly increased
Serum IgE level (OD450) (serum IgE; 175 ug/kg/day subcutaneous): 0.421 ± 0.044 OD450
Serum IgE level (OD450) (serum IgE; 350 ug/kg/day subcutaneous): 0.279 ± 0.036 OD450
IgE level in the serum (in words) (serum IgE; compared with the model group and SP peptide group): significantly decreased
stability in whole blood [2]: significantly higher than that of SP peptide
recovery [2, 19]: 100%
recovery [2, 20]: 97.9 ± 7.4%
recovery [2, 21]: 101 ± 10.7%
recovery [2, 22]: 99.6 ± 1.3%
recovery [2, 23]: 97.9 ± 2.5%
Recovery rate (%) M±SD [2, 24]: 103±3.9%
recovery [2, 24]: 100%
lung pathology, H&E ([3]; high-dose group (350 µg/kg body weight/day)): less inflammatory cell infiltration and clear alveolar cavity
lung pathology, H&E ([3]; low-dose group (175 µg/kg body weight/day)): more inflammatory cells infiltrating in the lungs
infiltration of inflammatory cells in the lungs, H&E ([3]; overall): significantly reduce the infiltration of inflammatory cells

CC(=O)N[C@H]1C(OC[C@H](NC(=O)[C@@H](NC(=O)[C@H](Cc2ccc(O)cc2)NC(=O)[C@@H](NC(=O)[C@H](CCC(N)=O)NC(=O)CN)[C@@H](C)OC2O[C@H](CO)[C@@H](O)[C@H](O)[C@H]2NC(C)=O)[C@@H](C)O)C(=O)NCC(=O)O)O[C@H](CO)[C@@H](O)[C@@H]1O (some centres unmarked) [SIPI-G9, GQT(Glc)YTS(Glc)G] (H-GQT(X1)YTS(X1)G-OH)
stability in whole blood [2]: significantly higher than that of SP peptide
recovery [2, 19]: 100%
recovery [2, 20]: 98.8 ± 4.6%
recovery [2, 21]: 98.3 ± 2.9%
recovery [2, 22]: 96.3 ± 4.9%
recovery [2, 23]: 95.9 ± 1%
recovery [2, 24]: > 90%

From patent US20230203095A1, “BIOLOGICAL PEPTIDE FOR TREATING LUNG DISEASES AND APPLICATION THEREOF” (SHANGHAI INSTITUTE OF PHARMACEUTICAL INDUSTRY CO., LTD., priority 2019, published 2023)
